We go through four compounds from ChEMBL document CHEMBL1130243, “Potent and selective inhibition of neuronal nitric oxide synthase by N omega-propyl-L-arginine” (J Med Chem, 1997).

Test [1] has as its target T1, Nitric oxide synthase 3 (Bos taurus, UniProt P29473).
T1 sequence (P29473 whole entry): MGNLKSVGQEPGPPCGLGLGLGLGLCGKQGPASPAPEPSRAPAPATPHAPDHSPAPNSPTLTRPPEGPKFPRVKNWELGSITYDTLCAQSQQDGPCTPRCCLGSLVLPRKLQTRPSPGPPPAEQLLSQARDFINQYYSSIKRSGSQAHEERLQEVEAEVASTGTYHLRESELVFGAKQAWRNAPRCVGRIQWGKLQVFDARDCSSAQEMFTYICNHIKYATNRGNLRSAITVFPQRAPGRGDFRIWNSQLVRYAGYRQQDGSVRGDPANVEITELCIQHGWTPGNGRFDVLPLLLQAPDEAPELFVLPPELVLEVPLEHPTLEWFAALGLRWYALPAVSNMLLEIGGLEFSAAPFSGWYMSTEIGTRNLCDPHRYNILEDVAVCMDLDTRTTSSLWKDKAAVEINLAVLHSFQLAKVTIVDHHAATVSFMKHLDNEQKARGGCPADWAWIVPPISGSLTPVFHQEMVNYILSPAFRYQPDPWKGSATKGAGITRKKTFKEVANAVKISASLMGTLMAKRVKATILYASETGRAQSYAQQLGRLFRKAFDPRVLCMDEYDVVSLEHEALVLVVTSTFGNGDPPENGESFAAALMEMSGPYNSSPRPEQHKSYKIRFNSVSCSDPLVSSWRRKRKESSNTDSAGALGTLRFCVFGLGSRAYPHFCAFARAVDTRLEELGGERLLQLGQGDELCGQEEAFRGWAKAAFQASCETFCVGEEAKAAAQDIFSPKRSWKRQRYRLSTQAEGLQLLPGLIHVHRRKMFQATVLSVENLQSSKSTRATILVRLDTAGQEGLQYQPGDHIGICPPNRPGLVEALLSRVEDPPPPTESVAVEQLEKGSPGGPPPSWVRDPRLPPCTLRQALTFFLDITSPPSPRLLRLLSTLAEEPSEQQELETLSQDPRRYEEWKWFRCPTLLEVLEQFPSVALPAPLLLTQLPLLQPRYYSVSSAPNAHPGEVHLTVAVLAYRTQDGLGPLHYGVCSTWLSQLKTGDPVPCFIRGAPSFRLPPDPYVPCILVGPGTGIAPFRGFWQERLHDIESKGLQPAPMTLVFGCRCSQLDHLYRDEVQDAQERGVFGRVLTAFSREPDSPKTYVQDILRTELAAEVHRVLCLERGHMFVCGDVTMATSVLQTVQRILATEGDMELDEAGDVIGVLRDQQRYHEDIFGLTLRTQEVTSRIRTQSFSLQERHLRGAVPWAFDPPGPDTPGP
Description: Compound was tested for binding affinity against Endothelial nitric oxide synthase.

Test [2] addresses T2, Nitric oxide synthase, inducible (Mus musculus, UniProt P29477).
T2 sequence (P29477 whole entry): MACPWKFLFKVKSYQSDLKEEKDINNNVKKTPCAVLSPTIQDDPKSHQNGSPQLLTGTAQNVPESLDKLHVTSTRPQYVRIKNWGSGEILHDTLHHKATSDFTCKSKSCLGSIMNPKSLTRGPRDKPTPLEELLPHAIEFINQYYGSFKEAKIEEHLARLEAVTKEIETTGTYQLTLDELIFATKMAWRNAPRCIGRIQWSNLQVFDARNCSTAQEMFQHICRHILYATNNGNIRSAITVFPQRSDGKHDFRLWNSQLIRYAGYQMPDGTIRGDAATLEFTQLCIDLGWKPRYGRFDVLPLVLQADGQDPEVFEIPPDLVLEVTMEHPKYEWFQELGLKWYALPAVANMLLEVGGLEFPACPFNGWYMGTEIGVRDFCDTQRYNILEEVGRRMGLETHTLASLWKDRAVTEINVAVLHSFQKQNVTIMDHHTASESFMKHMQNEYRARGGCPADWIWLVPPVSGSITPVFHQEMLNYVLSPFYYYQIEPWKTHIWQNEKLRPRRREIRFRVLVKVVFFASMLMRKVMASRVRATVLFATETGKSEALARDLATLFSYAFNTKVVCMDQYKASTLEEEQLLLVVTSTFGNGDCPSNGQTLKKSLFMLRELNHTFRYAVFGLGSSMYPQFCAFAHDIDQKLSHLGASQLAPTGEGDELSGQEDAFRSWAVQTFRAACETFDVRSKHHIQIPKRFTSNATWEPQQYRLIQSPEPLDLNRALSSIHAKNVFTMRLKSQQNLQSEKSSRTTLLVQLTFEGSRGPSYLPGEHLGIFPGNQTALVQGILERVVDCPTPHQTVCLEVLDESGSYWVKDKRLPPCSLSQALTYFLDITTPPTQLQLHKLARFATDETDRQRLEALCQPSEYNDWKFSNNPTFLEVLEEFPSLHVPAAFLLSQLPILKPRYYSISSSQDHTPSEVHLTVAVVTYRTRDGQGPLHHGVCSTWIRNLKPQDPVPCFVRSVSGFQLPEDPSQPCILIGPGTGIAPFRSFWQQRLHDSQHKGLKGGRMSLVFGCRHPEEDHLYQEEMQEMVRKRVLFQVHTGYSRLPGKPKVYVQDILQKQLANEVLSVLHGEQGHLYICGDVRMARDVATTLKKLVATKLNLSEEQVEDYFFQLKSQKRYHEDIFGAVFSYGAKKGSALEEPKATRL
Put plainly: Compound was tested for binding affinity against recombinant inducible nitric oxide synthase (iNOS) from mouse.

pKi: −log10 of the molar value.

For `C=CCNC(=N)NCCCC(N)C(C)=O` (stereo unspecified), the pKi in test [1] is 5.51; in test [2], 5.68. For the compound `CCC/N=C(/N)NCCCC(N)C(=O)O` (stereo unspecified), the pKi in test [1] is 5.07. `CC/N=C(/N)NCCCC(N)C(=O)O` (stereo unspecified): the values for the negative logarithm of the Ki (pKi) in test [1] and in test [2] were 5.02 and 5.21, respectively.

Consider `C#CC/N=C(/N)NCCCC(N)C(=O)O` (stereo unspecified), for which the pKi in test [2] is 6.21.
